Patent publication US10898542B2, “Topical compositions comprising OB-fold variants” (AFFILOGIC, priority 2013, dated 2021)
Each block holds one compound with its values, some of them ahead of it.

What was measured:
[1] = Franz cell diffusion test, penetration through human skin ex vivo; assay type: in vitro ADME; settings: human skin 1 mm, 100 μl at 5 mg/ml, 24 h, PBS pH 7.4 receiver, 2 cm^2
Description: The test used is the Franz cell diffusion test.
Franz cells are used to determine, ex vivo, the skin penetration of exogenous substances, and to actually measure the speed of passage through the various layers of the skin barrier of the molecules constituting the active ingredient deposited at the surface of the skin.
A solution containing the molecule to be studied is deposited in a “donor” department of the device. The molecule then diffuses through a membrane (in the case in point the skin) and is collected in a “receiver” compartment.
In practice, after having removed the hypodermal layer (adipose tissue), the skin fragment is deposited on a diffusion cell, called a Franz cell. The deep face of the dermis is in contact with a receiver solution which is supposed to replace the interstitial fluid of the skin. A solution containing the molecule studied is deposited on top of the skin. […]
The nanofitin concentration was measured on each of the samples taken, using the BioLayer Interferometry technology which makes it possible to measure the interaction between two proteins. In the case in point, the nanofitin content is measured by the recognition of a poly-Histidine tag which is coupled to said nanofitins beforehand.

[2] = system: skin inflammation similar to psoriasis caused by imiquimod (Aldara); test: Imiquimod-induced psoriasis-type ear inflammation, topical treatment, PASI score; assay type: in vivo, Balb/c mice; settings: cream on right ear; mice licked their ears, systemic effect after ingestion very probable
Description: In order to verify the skin penetration of nanofitins and the preservation of their properties, in particular their property of neutralizing the receptor-ligand relationship, inflammation models of psoriasis type were used and the reduction in inflammation (PASI score) after topical administration of anti-inflammatory nanofitins directly to the skin was measured.
These nanofitins target two different cytokines involved in psoriasiform inflammation, but with different localizations, from the basal layers of the dermis just into the epidermis (Nestle et al., Nature Reviews Immunology 9, 679-691, 2009). The nanofitins in question neutralize the binding of the targeted cytokines with their receptor. In order to inhibit the action of these cytokines during inflammation of psoriasis type, it is necessary to reach the layers where they are located, either systemically as therapeutic antibodies do, or topically via the skin. The measurement of an anti-inflammatory effect by topical administration of nanofitins thus attests to penetration of the nanofitins through the skin and to an associated therapeutic efficacy.
The local application of imiquimod (Aldara) to the internal face of the ears of mice causes a skin inflammation similar to psoriasis (Van der Fits et al., J Immunol. 2009 May 1; 182(9):5836-45, Flutter et al., Eur J Immunol. 2013 December; 43(12):3138-46). […]

[3] = Penetration through rabbit cornea in reaction chambers; assay type: in vitro ADME; settings: male, Fauve de Bourgogne, 37° C., sampling 0 h, 2 h and 4 h, 0.5 cm^2, read-out: apparent permeability
Description: Three male rabbits (Fauve de Bourgogne) were used.
The principle is the same as for the skin permeability.
3 ml of formulation containing each nanofitin were placed on the donor side of the reaction chambers and 3 ml of PBS were placed on the receiver side. Freshly taken corneal tissues were placed between the two half-chambers.
The temperature was maintained at 37° C. throughout the study and the oxygenation was provided by continuous perfusion of carbogen (95% O2, 5% CO2). The exchange surface area was 0.5 cm^2.
At each following sampling period: 0 h, 2 h and 4 h, 500 μl of liquid were taken from the receiver side and replaced with PBS. • 100 μl of liquid were taken from the donor side and were not replaced.
At the end of the sampling period, the 0.5 cm^2 of corneas were removed from the reaction chamber and scraped with a scalpel. 1 ml of PBS was added to the samples, which were homogenized.

Compound: Cn1c(=O)c2c(ncn2C)n(C)c1=O [caffeine]
percentage found on the receiver side (skin permeability) [1]: ~10%

Compound: C[C@H]1C[C@H]2[C@@H]3CCC4=CC(=O)C=C[C@]4(C)[C@@]3(F)[C@@H](O)C[C@]2(C)[C@@]1(O)C(=O)CCl [clobetazole]
inflammation on the nontreated left ear [2]: reduction in the inflammation on the nontreated left ear

Papp at 4 h [3]: 11 ×10⁻⁶ cm/s
Compound: CCn1cc(C(=O)O)c(=O)c2cc(F)c(N3CCNCC3)cc21 [norfloxacin]
